# Results as given in patent US8362004B2, “Piperazine analogs as broad-spectrum influenza antivirals” (priority 2010, dated 2013).
# Read-outs that look alike come from different tables or passages of the source.
# Legend:
# [1] = tested on: influenza A/WSN/33; experiment: Antiviral assay in MDCK cells, viral neuraminidase (MUNANA) readout, A/H1N1/WSN; type: cell-based; conditions: read-out: A/H1N1/WSN Activity
# [2] = tested on: Influenza A/Solomon Islands/3/06; experiment: Antiviral assay in MDCK cells, viral neuraminidase (MUNANA) readout, A/H1N1/Solomon Islands; type: cell-based; conditions: read-out: A/H1N1/Solomon Islands Activity
# [3] = tested on: influenza A/Brisbane/10/2007; experiment: Antiviral assay in MDCK cells, viral neuraminidase (MUNANA) readout, A/H3N2/Brisbane; type: cell-based; conditions: read-out: A/H3N2/Brisbane Activity
# [4] = tested on: A/H5N1/Duck_MN; experiment: microbe, parasite or virus in culture; type: cell-based, influenza A
# [5] = tested on: A/H5N1/Duck_PA; experiment: microbe, parasite or virus in culture; type: cell-based, influenza A
# [6] = tested on: A/H5N1/Gull_PA; experiment: microbe, parasite or virus in culture; type: cell-based, influenza A
# [7] = MDCK cells, MOI 0.001, 48 hrs post infection, viral NA activity
SMILES,"EC50 [1, 7] [nM]","EC50 [2, 7] [nM]","EC50 [3, 7] [nM]",EC50 ([4]; read-out: A/H5N1/Duck_MN) [nM],EC50 ([5]; read-out: A/H5N1/Duck_PA) [nM],EC50 ([6]; read-out: A/H5N1/Gull_PA) [nM],"EC50 ([1]; Influenza A virus, MDCK, 48 h) [nM]","EC50 ([2]; Influenza A virus, H1N1, MDCK, 48 h) [nM]","EC50 ([3]; Influenza A virus, H3N2, MDCK, 48 h) [nM]","EC50 ([4]; Influenza A virus, H5N1, read-out: A/H5N1/Duck_MN) [nM]","EC50 ([5]; Influenza A virus, H5N1, read-out: A/H5N1/Duck_PA) [nM]","EC50 ([6]; Influenza A virus, H5N1, read-out: A/H5N1/Gull_PA) [nM]"
COc1ccccc1-c1nnn(C)c1C(=O)N1CCN(c2cc(NC(=O)c3ccc(N4CCOC4=O)cc3)c([N+](=O)[O-])cc2Cl)CC1 [Example 93],< 100,< 100,< 1000,< 1000,< 1000,< 100,–,–,–,–,–,–
COc1ccccc1-c1noc(C)c1C(=O)N1CCN(c2cc(NC(=O)c3nccs3)c([N+](=O)[O-])cc2Cl)CC1 [Example 5],< 100,< 100,< 1000,< 100,< 100,< 100,–,–,–,–,–,–
"COc1ccccc1-c1noc(C)c1C(=O)N1CCN(c2cc(NC(=O)c3ccc(N(C)C)cc3)c([N+](=O)[O-])cc2Cl)CC1 [Example 14, N-(4-chloro-5-(4-(3-(2-methoxyphenyl)-5-methylisoxazole-4-carbonyl)piperazin-1-yl)-2-nitrophenyl)-4-(dimethylamino)benzamide]",–,–,–,–,–,–,< 100,< 100,< 100,< 100,< 1000,< 100
